Values quoted from earlier work, collected in patent publication USH1286H, “Method for treating peripheral atherosclerotic disease employing a cholesterol lowering drug, an ACE inhibitor, or a combination thereof” (E. R. Squibb & Sons, Inc., priority 1990, dated 1994).

Conditions: hypercholesterolemic patients; Costa et al., Am. J. Hyperten. 1988

C[C@H](CS)C(=O)N1CCC[C@H]1C(=O)O [captopril, 1-[(2S)-3-mercapto-2-methylpropionyl]-L-proline]
increase of HDL: 27%
reduction of serum cholesterol: -18%
